Experimental data reported in PMC10115881, “Disrupting the α-synuclein-ESCRT interaction with a peptide inhibitor mitigates neurodegeneration in preclinical models of Parkinson’s disease” (Nature Communications, 2023).

Key:
[1] = system: endogenous a-syn in SNCA triplication fibroblasts; assay: a-syn immunofluorescence in SNCA triplication fibroblasts; type: cell-based, human
Description: Fig. 6 PDpep1.3 reduces endogenous a-syn levels and rescues lysosomal activity in human PD cell models. A Representative images of fibroblasts from a PD patient with SNCA triplication transduced with Scramble1.3-RFP or PDpep1.3-RFP (scale bars = 10 µm). B Quantification of relative a-syn fluorescence in RFP-positive fibroblasts. Bars represent means ± s.e.m. (one-way ANOVA, F(3, 36) = 6.159; P = 0.0017 followed by Dunnett’s post-test; n = 3). C Endolysosomal flux assay using confocal microscopy in SNCA triplication fibroblasts transduced with AAV-Scramble1.3-RFP or AAV-PDpep1.3-RFP. Cells were treated as indicated with Bafilomycin A1 (Baf). Bars represent means ± s.e.m. (nested one-way ANOVA, F(3, 10) = = 23.70; P < 0.0001 followed by Dunnett’s post-test; n = 3). D Representative images of human iPSC-derived dopaminergic neurons with A53T a-syn mutation or isogenic controls without a-syn mutation. These iPSC-derived dopaminergic neurons were transduced with Scramble1.3-RFP or PDpep1.3-RFP and immunostained with anti-a-syn, anti-TH, or anti-LAMP1 antibodies (scale bars = 5 μm). E Quantification of relative a-syn fluorescence intensity in RFP-positive A53T mutant and control iPSC-derived dopaminergic neurons. Bars represent means ± s.e.m. […] F Quantification of relative LAMP1 fluorescence intensity in RFP-positive A53T mutant and control iPSC-derived dopaminergic neurons. […]

cathepsin D = assay: Cathepsin D fluorescence in rat cortical neurons; type: cell-based; conditions: A53T a-syn
Description: Pregnant rats (E17) of the Sprague-Dawley strain were purchased from Envigo. Embryos were surgically removed from the mothers and cortices dissected in Hanks Balanced salt solution (Gibco). The meninges were removed, and cells were dissociated using a papain dissociation system (Worthington) before being resuspended in Neurobasal medium A supplemented with antibiotic-antimycotic solution (Gibco), L-glutamine substitute (GlutaMAX™; Gibco) and factor B27 (Gibco). […]
After fixation, cells were permeabilized with 0.2% Triton-X-100 for 15 min, washed three times with PBS and then incubated with blocking solution (1% BSA, 22.52 mg/mL glycine, 0.1% Tween-20 in PBS or 0.4% saponin, 1% BSA, and 5% goat or donkey serum in PBS) for 1 h. […] Following another three washes with PBS, nuclei were counterstained with DAPI (ThermoFisher) and then coverslips were mounted on slides using Dako fluorescence mounting medium (Agilent) and sealed using clear nail varnish.
(§1) Confocal images of primary cortical neurons, iPSC-derived dopaminergic neurons, and LAMP1 staining within the SN were processed using Imaris software (Oxford instruments). […] Mean pixel intensity per GFP^+ cell (for experiments using GFP-tagged peptides) or RFP^+ cell (for experiments using RFP-tagged peptides) was calculated for a-syn or LAMP1 signal using the software’s surfaces module. […]

full-length YFP = assay: YFP fluorescence in rat cortical neurons, full length YFP; type: cell-based
Description: Adeno-associated virus (AAV) of a 1/2 serotype was used to express A53T a-syn (AAV-A53T), a truncated version of A53T a-syn lacking amino acids 103–140 (Δa-syn(103–140)), and WT a-syn, fused to either the N-terminal half of YFP (AAV-V1S) or the C-terminal half of YFP (AAV-SV2), all under the control of the CAG promoter, a hybrid of the chicken beta-actin (CBA) promoter fused with the cytomegalovirus (CMV) immediate early enhancer sequence (GeneDetect Ltd.)[46].
Pregnant rats (E17) of the Sprague-Dawley strain were purchased from Envigo. Embryos were surgically removed from the mothers and cortices dissected in Hanks Balanced salt solution (Gibco). […]
as §1, with “module. The software’s surfaces module was used to identify GFP^+/NeuN^+ cells, and number of pS129 a-syn^+ puncta per GFP^+/NeuN^+ cortical neuron was counted using the software’s spots module. Mean pixel intensity per RFP^+/NeuN^+ cortical neuron was calculated for Rab7, cathepsin B, or cathepsin D signals using the software’s surfaces module.” for “module.”

Sequence: DEEIERQLKALG [PDpep1.3]
- Effect on a-syn fluorescence in fibroblasts [1]: reduced a-syn fluorescence
- Effect on a-syn levels in presence of Bafilomycin A1 ([1]; + Bafilomycin A1): could not reduce a-syn levels
- Effect on cathepsin D (cathepsin D): reduced to control levels
- Effect on YFP fluorescence, full-length YFP (full-length YFP): had no effect on fluorescence of YFP alone
